# Like-named read-outs stand apart in the source and are kept apart here.
# Columns and labels:
# [1] = cited from earlier work
# Raji = assay: Growth inhibition of Raji tumor cells by BrUra; assay type: cell-based, human; conditions: 72 hr
# Procedure: (§1) The five human-derived tumor cell lines shown below were incubated with BrUra at concentrations from 0.5 to 4.5 mM for 72 hours. (Cell lines are available at the ATCC, Manassas, Va.) Separate incubations were conducted in the presence or absence of 50 μM dUrd. Growth inhibition was determined as a percentage of control values for cells incubated without BrUra or dUrd. Consistent with the experiments described in Example 8, co-incubation with dUrd increased cytotoxicity of BrUra in all groups. As expected from their high level of TPase expression, U937 were the only cells with notable toxicity at 0.5 mM, and also the greatest toxicity at 1.5 and 4.5 mM. CEM, MOLT4, and K562 were substantially less affected by incubation with BrUra, consistent with a low intracellular activation rate because of low TPase expression.
# (§2) % Growth Inhibition, Based Upon Control Doubling Time=24 Hr. BrUra Concentrations Ranged from 0.5 to 4.5 mM. Incubations were Conducted for 72 Hr in the Presence or Absence of 50 μM ddUrd.
# K562 = assay: Growth inhibition of K562 tumor cells by BrUra; assay type: cell-based, human; conditions: 72 hr
# Procedure: as §1, §2
# [2] = system: Dunning rat prostatic tumors; assay: 5-X-Ura incorporation into tumor DNA in vivo; conditions: BrUra intravenously, tumors harvested 105 minutes after injection
# Procedure: Dunning rat prostatic tumors were implanted (250,000 cells) subcutaneously in 3 rats. Two weeks post-implantation, the tumors had reached 7-20 g in size and the rats weighed about 250 g. At 2 weeks post-implantation, TPase was measured. BrUra was prepared in an aqueous solution, adjusted to pH 9 (the same formulation used clinically for its analog, FUra), and injected intravenously via a tail vein. The rats were sacrificed 105 minutes after the injection, and the tumors were harvested. DNA from the tumor was isolated, digested, and the nucleosides analyzed by HPLC (Klecker, 1994). BrdUrd was found in the DNA of the tumors, replacing 0.15% of the dThd bases.
# TPase [3] = target: T1, TPase (Homo sapiens, UniProt P19971); assay: TPase inhibition in tumor cells co-incubated with human liver cytosol ([3H]-dThd incorporation into DNA); assay type: cell-based; conditions: BrUra 500 μM, U-937 or MOLT-4 cells with human liver cytosol (S100), 5-35% without BrUra
# T1 sequence (P19971 11-482): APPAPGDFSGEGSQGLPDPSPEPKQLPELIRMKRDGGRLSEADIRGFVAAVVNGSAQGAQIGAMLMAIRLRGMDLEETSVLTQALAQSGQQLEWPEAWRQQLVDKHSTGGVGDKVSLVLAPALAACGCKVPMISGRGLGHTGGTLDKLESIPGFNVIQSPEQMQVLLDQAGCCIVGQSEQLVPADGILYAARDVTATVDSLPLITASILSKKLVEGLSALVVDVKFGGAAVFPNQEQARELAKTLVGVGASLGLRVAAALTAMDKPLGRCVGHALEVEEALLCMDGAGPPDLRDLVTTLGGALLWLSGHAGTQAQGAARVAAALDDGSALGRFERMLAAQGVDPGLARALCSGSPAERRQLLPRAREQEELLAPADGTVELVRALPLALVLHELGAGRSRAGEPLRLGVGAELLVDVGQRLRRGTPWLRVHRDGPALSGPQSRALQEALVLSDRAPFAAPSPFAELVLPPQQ
# Procedure: [^3H]-dThd (0.02 μM) or [^3H]-dUrd (0.1 μM) was incubated with either U-937 or MOLT-4 tumor cells, and incorporation of [[…] into DNA was measured after 3 hours. Cytosol (S100) was prepared from human liver by differential centrifugation. This cytosol, which contains TPase, was co-incubated with U-937 or MOLT4 tumor cells to simulate the degradation of pyrimidine nucleosides in the body. Incorporation of [^3H]-dThd into DNA was decreased to 5-35% of baseline levels. When BrUra (500 μM) was also added to the incubation mixture, TPase inhibition was observed as increased incorporation of [^3H]-dThd in DNA, back to 39-89% of baseline levels.
# MOLT4 = assay: Growth inhibition of MOLT4 tumor cells by BrUra; assay type: cell-based, human; conditions: 72 hr
# Procedure: as §1, §2
# U937 = assay: Growth inhibition of U937 tumor cells by BrUra; assay type: cell-based, human; conditions: 72 hr
# Procedure: as §1, §2
# CEM = assay: Growth inhibition of CEM tumor cells by BrUra; assay type: cell-based, human; conditions: 72 hr
# Procedure: as §1, §2
# TPase [4] = target: T1, TPase; assay: TPase inhibition in intact human hepatocytes ([3H]-Ura formation from [3H]-dUrd); assay type: cell-based; parameters: Cryopreserved human hepatocytes were procured from In Vitro Technologies, Inc; host or cells: cryopreserved human hepatocytes; conditions: [3H]-dUrd 0.2 μM, one hour
# Procedure: Cryopreserved human hepatocytes were procured from In Vitro Technologies, Inc. (Catonsville, Md.) and processed according to the supplier's instructions. TPase activity was monitored for one hour by measuring formation of [^3H]-Ura from [^3H]-dUrd, 0.2 μM. Co-incubation of tritiated dUrd with 100 μM BrUra inhibited TPase by 48%, and 500 μM of BrUra inhibited TPase by 85%.
# U-937 cells = assay: Enhancement of BrUra trapping into DNA by dR-1-P prodrugs; assay type: cell-based, human; conditions: 24 hours, 20 μM BrUra and 20 μM deoxyribonucleoside
# Procedure: The effect of dR-1-P prodrugs was examined in U-937 cells. Cells were incubated for 24 hours with 20 μM BrUra and 20 μM of six different deoxyribonucleosides. The use of prodrugs for dR-1-P is described as a way of driving the reaction catalyzed by TPase in the direction of thymidine production. As illustrated in the bar chart, in FIG. 3, the maximum enhancement of BrUra trapping in DNA was 24-fold, for dUrd. An increase of 6-fold was found for dIno.
# [5] = system: U-937 cells implanted subcutaneously in nude mice; assay: Incorporation of [3H]-BrUra into tumor DNA in vivo, modulation with eniluracil; conditions: eniluracil 2 mg/kg i.p. thirty minutes prior to i.v. [3H]-BrUra, 24 hours
# Procedure: U-937 cells (ATCC; Manassas, Va.) were implanted subcutaneously in nude mice. When tumors grew to about 0.5 gram, [^3H]-BrUra was injected i.v. One set of mice received eniluracil, 2 mg/kg, injected i.p. thirty minutes prior to i.v. [3H]-BrUra, and the other set received no treatment prior to [^3H]-BrUra i.v. Both sets of mice were killed 24 hours later, and tumors and blood removed. DNA from tumors was extracted and analyzed using our established techniques (Klecker et al., 1994). [^3H]-BrdUrd was found in DNA in tumors by radiochromatography, indicating conversion of [^3H]-BrUra in vivo, similar to our results for cell culture.
structure (smiles),measurement,setting,value
"O=c1[nH]cc(F)c(=O)[nH]1 [5-FUra, 5-fluorouracil]",increase in 5-FUra exposure,[1]; presence versus absence of eniluracil,50- to 100 fold
same,Plasma clearance of 5-FUra,[1]; with eniluracil,0.1 L/min
same,recovered unchanged in the urine,[1]; with eniluracil,77%
same,tolerated dose upon continuous dosing,[1]; with eniluracil,2 mg/day per square meter of body surface
same,Plasma clearance of 5-FUra,[1]; without eniluracil,5.0 L/min
same,recovered unchanged in the urine,[1]; without eniluracil,less than 10%
"O=c1[nH]cc(Br)c(=O)[nH]1 [BrUra, bromouracil]",% Growth Inhibition,"Raji; BrUra 0.5 mM, with 50 μM dUrd",9%
same,% Growth Inhibition,"Raji; BrUra 0.5 mM, without dUrd",2%
same,% Growth Inhibition,"Raji; BrUra 1.5 mM, with 50 μM dUrd",24%
same,% Growth Inhibition,"Raji; BrUra 1.5 mM, without dUrd",27%
same,% Growth Inhibition,"Raji; BrUra 4.5 mM, with 50 μM dUrd",67%
same,% Growth Inhibition,"Raji; BrUra 4.5 mM, without dUrd",65%
same,% Growth Inhibition,"K562; K562, BrUra 0.5 mM, with 50 μM dUrd",−6%
same,% Growth Inhibition,"K562; K562, BrUra 0.5 mM, without dUrd",−7%
same,% Growth Inhibition,"K562; K562, BrUra 1.5 mM, with 50 μM dUrd",28%
same,% Growth Inhibition,"K562; K562, BrUra 1.5 mM, without dUrd",13%
same,% Growth Inhibition,"K562; K562, BrUra 4.5 mM, with 50 μM dUrd",77%
same,% Growth Inhibition,"K562; K562, BrUra 4.5 mM, without dUrd",57%
same,"BrdUrd found in DNA of the tumors, replacing dThd bases",[2],0.15%
same,"incorporation of [3H]-dThd in DNA, of baseline levels",TPase [3],39-89%
same,% Growth Inhibition,"MOLT4; MOLT4, BrUra 0.5 mM, with 50 μM dUrd",8%
same,% Growth Inhibition,"MOLT4; MOLT4, BrUra 0.5 mM, without dUrd",6%
same,% Growth Inhibition,"MOLT4; MOLT4, BrUra 1.5 mM, with 50 μM dUrd",25%
same,% Growth Inhibition,"MOLT4; MOLT4, BrUra 1.5 mM, without dUrd",26%
same,% Growth Inhibition,"MOLT4; MOLT4, BrUra 4.5 mM, with 50 μM dUrd",85%
same,% Growth Inhibition,"MOLT4; MOLT4, BrUra 4.5 mM, without dUrd",66%
same,% Growth Inhibition,"U937; U937, BrUra 0.5 mM, with 50 μM dUrd",28%
same,% Growth Inhibition,"U937; U937, BrUra 0.5 mM, without dUrd",16%
same,% Growth Inhibition,"U937; U937, BrUra 1.5 mM, with 50 μM dUrd",77%
same,% Growth Inhibition,"U937; U937, BrUra 1.5 mM, without dUrd",47%
same,% Growth Inhibition,"U937; U937, BrUra 4.5 mM, with 50 μM dUrd",100%
same,% Growth Inhibition,"U937; U937, BrUra 4.5 mM, without dUrd",100%
same,% Growth Inhibition,"CEM; BrUra 0.5 mM, with 50 μM dUrd",13%
same,% Growth Inhibition,"CEM; BrUra 0.5 mM, without dUrd",6%
same,% Growth Inhibition,"CEM; BrUra 1.5 mM, with 50 μM dUrd",65%
same,% Growth Inhibition,"CEM; BrUra 1.5 mM, without dUrd",23%
same,% Growth Inhibition,"CEM; BrUra 4.5 mM, with 50 μM dUrd",95%
same,% Growth Inhibition,"CEM; BrUra 4.5 mM, without dUrd",89%
same,TPase inhibition,TPase [4]; 100 μM BrUra,48%
same,TPase inhibition,TPase [4]; 500 μM BrUra,85%
"OC[C@H]1O[C@@H](n2cnc3c(O)ncnc32)C[C@@H]1O [dIno, deoxyinosine]",enhancement of BrUra trapping in DNA,U-937 cells,6 fold
O=c1ccn([C@H]2C[C@H](O)[C@@H](CO)O2)c(=O)[nH]1 [dUrd],enhancement of BrUra trapping in DNA,U-937 cells,24 fold
C#Cc1c[nH]c(=O)[nH]c1=O [eniluracil],increase of incorporation of radioactivity into DNA from [3H]-BrUra,[5],five-fold

# Source: patent US20040157867A1, “Pyrimidine phosphorylase as a target for imaging and therapy” (priority 2004, published 2004)
